Assay results published in patent US9850283B2, “Macrocyclic inhibitors of the PD-1/PD-L1 and CD80(B7-1)/PD-L1 protein/protein interactions” (BRISTOL-MYERS SQUIBB COMPANY, priority 2013, dated 2017).
Like-named read-outs stand apart in the source and are kept apart here. Positions of bridges follow the written chain, without caps; N, C: chain ends. Non-standard residues stand in square brackets, D forms with d. Residues, ends and D or L forms follow the SMILES beside them. ξ: configuration not given here. Bta = N[C@@H](Cc1csc2ccccc12)C(=O)O; Hyp = O=C(O)[C@@H]1C[C@@H](O)CN1; dNMeNle = CCCC[C@@H](NC)C(=O)O; NMeNle = CCCC[C@H](NC)C(=O)O; Pip = O=C(O)[C@@H]1CCCCN1; NMeA = CN[C@@H](C)C(=O)O; dDap = NC[C@@H](N)C(=O)O; Dab = NCC[C@H](N)C(=O)O; Dap = NC[C@H](N)C(=O)O; ξP = O=C(O)C1CCCN1

Experiments:
Hu PD-L1/PD-1 = Hu PD-L1/PD-1 (Homo sapiens, UniProt Q9NZQ7); test: Cell binding assay Hu PD-L1/PD-1 (Tables 11-13, cell line not given); assay type: cell-based; conditions: Table 13, Compound No. 71 series
Method in brief: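 Three formats. In the L2987 imaging assay, natively PD-L1-expressing cells received inhibitor and PE-PD-1-Ig for 1 h at 37 °C, followed by fixation and nuclear Hoechst staining. In the flow-cytometry assays, LK35.2 cells overexpressing hPD-L1 were pre-treated 15 min with inhibitor, then bound 2 nM PE-PD-1-Ig for 1 h at RT in RPMI/2% FCS, while Jurkat-PD-1 cells bound PE-PD-L1-Ig.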

Human PD-L1/PD-1 = target: T1, Human PD-L1/PD-1 (Homo sapiens, UniProt Q9NZQ7); test: HTRF PD-1-Ig/PD-L1-His binding assay (human PD-L1)
T1 construct: made in house; host or cells: HEK293T
Method in brief: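 The time-resolved fluorescence signal comes from Eu-cryptate anti-Ig (1 nM) and APC anti-His (20 nM) antibodies bound to a PD-1-Ig/PD-L1-His complex. Both partners lack transmembrane regions.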

[1] = target: T2, LK35.2-hPD-L1 cells / PE-labeled PD-1-Ig (Homo sapiens, UniProt Q9NZQ7); test: LK35.2-hPD-L1 cell binding high-content screening assay; assay type: cell-based; conditions: cell line of CBA not given (LK35.2-hPD-L1 or 293T-hPD-L1)
T2 construct: expressed in transfected cells; host or cells: LK35.2 mouse B cell line
Method in brief: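 Mouse LK35.2 B cells stably over-expressing human PD-L1, cultured overnight, treated with compound plus PE-labeled human PD-1-Ig (1 nM final) in RPMI/10% FCS for 1 h at 37 °C. After washing, bound fluorescence quantified by high-content imaging.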

CMV-specific T cells = CMV-specific T cells (Homo sapiens, UniProt Q9NZQ7); test: CMV-specific T cell function assay (IFNγ secretion, ELISA); assay type: cell-based; conditions: read-out: CMV Recall EC50 value
Procedure: CMV-specific T Cell Function Assay. […] AIM-V medium (Life Technologies, Grand Island, N.Y.) supplemented with 10% heat-inactivated fetal bovine serum (FBS, Sigma, St Louis, Mo.) was used at a total volume of 200 µL/well in triplicate. The cells were cultured for 4 days at 37° C., 5% CO2 at which time culture supernatant was harvested for determination of secreted IFNγ by ELISA (OptEIA hIFNγ ELISA Kit, BD Biosciences, San Jose, Calif.).

[2] = Table 9, Compound No. 71 variant macrocyclic peptides, read-out: HTRF Human PD-L1/PD-1 Binding Assay IC50

T1 sequence (Q9NZQ7 with tags, fused parts or gaps): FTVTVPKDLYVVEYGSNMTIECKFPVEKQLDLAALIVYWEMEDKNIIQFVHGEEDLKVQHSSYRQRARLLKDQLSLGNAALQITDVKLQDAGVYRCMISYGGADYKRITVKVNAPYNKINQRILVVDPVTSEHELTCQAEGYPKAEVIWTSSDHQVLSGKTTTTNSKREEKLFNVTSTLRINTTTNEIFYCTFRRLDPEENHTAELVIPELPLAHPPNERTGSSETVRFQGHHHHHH
T2 sequence (Q9NZQ7 19-290): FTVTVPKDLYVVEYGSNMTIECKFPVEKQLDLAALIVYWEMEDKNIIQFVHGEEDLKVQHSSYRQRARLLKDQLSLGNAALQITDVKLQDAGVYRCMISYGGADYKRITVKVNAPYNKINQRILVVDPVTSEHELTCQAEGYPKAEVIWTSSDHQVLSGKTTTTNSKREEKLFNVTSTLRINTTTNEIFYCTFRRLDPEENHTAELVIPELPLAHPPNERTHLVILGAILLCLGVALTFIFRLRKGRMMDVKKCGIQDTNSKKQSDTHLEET
Chain of CMV-specific T cells (Q9NZQ7 19-290): as above
Chain of Hu PD-L1/PD-1 (Q9NZQ7 19-290): as above

Structure (SMILES)	IC50 (Hu PD-L1/PD-1)	IC50 (Human PD-L1/PD-1; [2])	IC50 ([1]; read-out: CBA IC50 value)	IC50 (Human PD-L1/PD-1; read-out: HTRF IC50 value)	EC50 (CMV-specific T cells)	IC50 ([1]; cluster symbol, read-out: CBA IC50 cluster)	IC50 (Human PD-L1/PD-1; cluster symbol, read-out: HTRF IC50 cluster)
CCCC[C@H]1C(=O)N(C)CC(=O)N[C@@H](CC(=O)O)C(=O)N[C@@H](C(C)C)C(=O)N(C)[C@@H](C)C(=O)N[C@@H](Cc2ccc(O)cc2)C(=O)N(C)CC(=O)N[C@@H](Cc2c[nH]c3ccccc23)C(=O)N[C@@H](Cc2ccc(O)cc2)C(=O)N[C@@H](CC(C)C)C(=O)N[C@H](C(=O)NCC(N)=O)CSCC(=O)N[C@@H](Cc2ccccc2)C(=O)N(C)[C@@H](Cc2ccccc2)C(=O)N1C [Compound No. 81] (HELM PEPTIDE1{[O=C(C[*:3])[*:2]].F.[meF].[CCCC[C@@H](C(=O)[*:2])N(C)[*:1]].[Sar].D.V.[meA].Y.[Sar].W.Y.L.C.G.[am]}$PEPTIDE1,PEPTIDE1,1:R3-14:R3$$$V2.0)	> 10000 nM	> 10000 nM	–	–	–	–	–
CCCC[C@H]1C(=O)N(C)CC(=O)N[C@@H](CC(=O)O)C(=O)N[C@@H](C(C)C)C(=O)N(C)[C@@H](Cc2ccccc2)C(=O)N[C@@H](Cc2ccc(O)cc2)C(=O)N(C)CC(=O)N[C@@H](Cc2c[nH]c3ccccc23)C(=O)N[C@@H](Cc2ccc(O)cc2)C(=O)N[C@@H](C)C(=O)N[C@H](C(=O)NCC(N)=O)CSCC(=O)N[C@@H](Cc2ccccc2)C(=O)N(C)[C@@H](Cc2ccccc2)C(=O)N1C [Compound No. 87] (HELM PEPTIDE1{[O=C(C[*:3])[*:2]].F.[meF].[CCCC[C@@H](C(=O)[*:2])N(C)[*:1]].[Sar].D.V.[meF].Y.[Sar].W.Y.A.C.G.[am]}$PEPTIDE1,PEPTIDE1,1:R3-14:R3$$$V2.0)	73 nM	25 nM	–	–	–	–	–
CCCC[C@H]1C(=O)N(C)[C@@H](CCCC)C(=O)N[C@@H](CN)C(=O)N[C@H](C(=O)NCC(N)=O)CSCC(=O)N[C@@H](Cc2ccc(O)cc2)C(=O)N(C)[C@@H](C)C(=O)N[C@@H](CC(=O)O)C(=O)N2CCC[C@H]2C(=O)N[C@@H](CN)C(=O)N[C@@H](CC(C)C)C(=O)N2C[C@H](O)C[C@H]2C(=O)N[C@@H](Cc2c[nH]c3ccccc23)C(=O)N[C@@H](CO)C(=O)N[C@@H](Cc2csc3ccccc23)C(=O)N1C [Example 1163] ({CH2CO}-Y[NMeA]DP[Dap]L[Hyp]WS[Bta][NMeNle][NMeNle][Dap]CG-NH2; thioether N-14)	–	–	4.04 nM	6.24 nM	2.93 nM	–	–
CCCC[C@@H]1C(=O)N(C)[C@H](CCCC)C(=O)N[C@@H](C)C(=O)N[C@@H](C(=O)NCC(N)=O)CSCC(=O)N[C@@H](Cc2ccc(O)cc2)C(=O)N2CCCC2C(=O)N[C@H](CC(=O)O)C(=O)N2CCC[C@H]2C(=O)N[C@H](CN)C(=O)N[C@@H](CC(=O)O)C(=O)N2CCCC2C(=O)N[C@H](Cc2c[nH]c3ccccc23)C(=O)N[C@@H](CCN)C(=O)N[C@@H](Cc2c[nH]c3ccccc23)C(=O)N1C (stereo partly shown) [Example 1210] ({CH2CO}-Y[ξP][dD]P[dDap]D[ξP][dW][Dab]W[dNMeNle][dNMeNle]A[dC]G-NH2; thioether N-14)	–	–	–	–	> 2500 nM	> 74.3 nM	> 30.5 nM
CCCC[C@@H]1C(=O)N(C)[C@H](CCCC)C(=O)N[C@@H](C)C(=O)N[C@@H](C(=O)NCC(N)=O)CSCC(=O)N[C@@H](Cc2ccc(O)cc2)C(=O)N2CCCC2C(=O)N[C@H](CC(=O)O)C(=O)N2CCC[C@H]2C(=O)N[C@H](Cc2c[nH]cn2)C(=O)N[C@@H](CCC(=O)O)C(=O)N2CCCC2C(=O)N[C@H](Cc2c[nH]c3ccccc23)C(=O)N[C@@H](CCN)C(=O)N[C@@H](Cc2c[nH]c3ccccc23)C(=O)N1C (stereo partly shown) [Example 1215] ({CH2CO}-Y[ξP][dD]P[dH]E[ξP][dW][Dab]W[dNMeNle][dNMeNle]A[dC]G-NH2; thioether N-14)	–	–	92.5 nM	50.9 nM	508 nM	–	–
CCCC[C@H]1C(=O)N(C)[C@@H](CCCC)C(=O)N[C@@H](CCCNC(=N)N)C(=O)N[C@H](C(=O)NCC(N)=O)CSCC(=O)N[C@@H](Cc2ccc(O)cc2)C(=O)N2CCCC[C@H]2C(=O)N[C@@H](CC(N)=O)C(=O)N2CCC[C@H]2C(=O)N[C@@H](Cc2cnc[nH]2)C(=O)N[C@@H](CCC(=O)O)C(=O)N2C[C@H](O)C[C@H]2C(=O)N[C@@H](Cc2c[nH]c3ccccc23)C(=O)N[C@@H](CO)C(=O)N[C@@H](Cc2c[nH]c3ccccc23)C(=O)N1C [Example 1237] ({CH2CO}-Y[Pip]NPHE[Hyp]WSW[NMeNle][NMeNle]RCG-NH2; thioether N-14)	–	–	4.92 nM	16.5 nM	21.9 nM	–	–
